Patent US9169254B2, “Spiroimidazolone derivative” (Chugai Seiyaku Kabushiki Kaisha, priority 2009, dated 2015)
Structures can show the parent of a compound that is named as a salt.

What follows are molecules tested against T1, human PTH1 receptor (Homo sapiens, UniProt Q03431) (assay: In vitro cAMP signal activity in HKRK-B7 cells (LLC-PK1 cells overexpressing the human PTH1 receptor)). Settings: HKRK-B7 cells; compound at 1×10^−3 M; cAMP produced as percentage of that produced by hPTH(1-34) at 100 nM.
T1 sequence (Q03431 27-593): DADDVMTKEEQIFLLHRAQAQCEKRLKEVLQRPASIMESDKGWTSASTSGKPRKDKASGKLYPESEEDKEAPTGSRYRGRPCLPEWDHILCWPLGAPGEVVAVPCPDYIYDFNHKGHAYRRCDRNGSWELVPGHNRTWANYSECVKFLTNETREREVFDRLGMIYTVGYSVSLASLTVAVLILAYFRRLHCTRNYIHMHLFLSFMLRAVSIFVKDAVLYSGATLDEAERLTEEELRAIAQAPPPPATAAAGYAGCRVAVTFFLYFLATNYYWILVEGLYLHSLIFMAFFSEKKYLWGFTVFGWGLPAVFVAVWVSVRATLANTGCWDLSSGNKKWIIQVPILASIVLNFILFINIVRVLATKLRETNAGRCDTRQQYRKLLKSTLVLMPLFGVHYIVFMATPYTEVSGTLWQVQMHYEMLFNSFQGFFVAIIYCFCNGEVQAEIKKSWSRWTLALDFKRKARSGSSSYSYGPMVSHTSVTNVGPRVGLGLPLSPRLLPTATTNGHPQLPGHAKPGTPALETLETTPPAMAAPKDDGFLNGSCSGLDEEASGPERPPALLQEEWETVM
Type: cell-based

Compound | cAMP production activity (%)
Cc1cc(N(C)C(N)=O)cc(C)c1CC[S@TB4](=O)(=O)N1CCC2(CC1)N=C(CCCCCCCCCCC(F)F)NC2=O [Compound 1156, 1-(4-{2-[2-(11,11-difluoro-undecyl)-4-oxo-1,3,8-triaza-spiro[4.5]dec-1-ene-8-sulfonyl]-ethyl}-3,5-dimethyl-phenyl)-1-methyl-urea] | 77%
CC(=O)Nc1ccc(CCS(=O)(=O)N2CCC3(CC2)N=C(C2CCC(=CCCF)CC2)NC3=O)c(C)c1 (stereo not drawn) [Compound 1066, N-[4-(2-{2-[4-(3-Fluoro-propylidene)-cyclohexyl]-4-oxo-1,3,8-triaza-spiro[4.5]dec-1-ene-8-sulfonyl}-ethyl)-3-methyl-phenyl]-acetamide] | 83%
CNc1cc(C)c(CCS(=O)(=O)N2CCC3(CC2)N=C(C2CCCN2)NC3=O)c(C)c1 (stereo not drawn) [Compound 1286, 8-[2-(2,6-Dimethyl-4-methylamino-phenyl)-ethanesulfonyl]-2-pyrrolidin-2-yl-1,3,8-triaza-spiro[4.5]dec-1-en-4-one dihydrochloride] | 35%
CC(=O)N(C)c1ccc(/C=C/CS(=O)(=O)N2CCC3(CC2)N=C(C2CCC(C)CC2)NC3=O)c(C)c1 (stereo not drawn) [Compound 744, N-Methyl-N-(3-methyl-4-{(E)-3-[2-(4-methyl-cyclohexyl)-4-oxo-1,3,8-triaza-spiro[4.5]dec-1-ene-8-sulfonyl]-propenyl}-phenyl)-acetamide] | 19%
Cc1cc(C(=O)N(C)C)ccc1CCS(=O)(=O)N1CCC2(CC1)N=C(Cc1ccccc1)NC2=O [Compound 83, 4-[2-(2-benzyl-4-oxo-1,3,8-triaza-spiro[4.5]dec-1-ene-8-sulfonyl)-ethyl]-3,N,N-trimethyl-benzamide] | 41%
O=C1NC(C2CCCCC2)=NC12CCN(S(=O)(=O)/C=C/c1ccc(CCO)cc1)CC2 [Compound 187, 2-cyclohexyl-8-{(E)-2-[4-(2-hydroxy-ethyl)-phenyl]-ethenesulfonyl}-1,3,8-triaza-spiro[4.5]dec-1-en-4-one] | 12%
Cc1cc(N2CCOCC2=O)cc(C)c1CCS(=O)(=O)N1CCC2(CC1)N=C(C1CCC(C)CC1)NC2=O (stereo not drawn) [Compound 765, 8-{2-[2,6-dimethyl-4-(3-oxo-morpholin-4-yl)-phenyl]-ethanesulfonyl}-2-(4-methyl-cyclohexyl)-1,3,8-triaza-spiro[4.5]dec-1-en-4-one] | 101%
CCCCC#CCCCC1=NC2(CCN(S(=O)(=O)CCc3c(C)cc(N(C)C(N)=O)cc3C)CC2)C(=O)N1 [Compound 1081, 1-{3,5-Dimethyl-4-[2-(2-non-4-ynyl-4-oxo-1,3,8-triaza-spiro[4.5]dec-1-ene-8-sulfonyl)-ethyl]-phenyl}-1-methyl-urea] | 53%
COC(=O)c1cc(C)c(S(=O)(=O)N2CCC3(CC2)N=C(C2CCCCC2)NC3=O)s1 [Compound 63, 5-(2-cyclohexyl-4-oxo-1,3,8-triaza-spiro[4.5]dec-1-ene-8-sulfonyl)-4-methyl-thiophene-2-carboxylic acid methyl ester] | 51%
Cc1cc(OCCC(O)CO)ccc1/C=C/S(=O)(=O)N1CCC2(CC1)N=C(c1cccc(OC(F)(F)F)c1)NC2=O (stereo not drawn) [Compound 531, 8-{(E)-2-[4-(3,4-dihydroxy-butoxy)-2-methyl-phenyl]-ethenesulfonyl}-2-(3-trifluoromethoxy-phenyl)-1,3,8-triaza-spiro[4.5]dec-1-en-4-one] | 69%
CC(=O)OC[C@H](CN(C(C)=O)c1ccc(CCS(=O)(=O)N2CCC3(CC2)N=C(c2ccc(C(F)(F)F)cc2)NC3=O)c(C)c1)OC(C)=O [Compound 151, acetic acid (S)-1-acetoxymethyl-2-[acetyl-(3-methyl-4-{2-[4-oxo-2-(4-trifluoromethyl-phenyl)-1,3,8-triaza-spiro[4.5]dec-1-ene-8-sulfonyl]-ethyl}-phenyl)-amino]-ethyl ester] | 53%

Other lines, results leading:

cAMP production activity (%) | Compound
112% | Cc1cc(C(=O)N2CCC(CO)CC2)cc(C)c1/C=C/[S@TB4](=O)(=O)N1CCC2(CC1)N=C(c1ccc(F)c(C(F)(F)F)c1)NC2=O [Compound 1162, 2-(4-fluoro-3-trifluoromethyl-phenyl)-8-{(E)-2-[4-(4-hydroxymethyl-piperidine-1-carbonyl)-2,6-dimethyl-phenyl]-ethenesulfonyl}-1,3,8-triaza-spiro[4.5]dec-1-en-4-one]
7.1% | Cc1cc(N2C(=O)CNC2=O)cc(C)c1CCS(=O)(=O)N1CCC2(CC1)N=C(c1cccc(OC(F)(F)F)c1)NC2=O [Compound 799, 3-(3,5-dimethyl-4-{2-[4-oxo-2-(3-trifluoromethoxy-phenyl)-1,3,8-triaza-spiro[4.5]dec-1-ene-8-sulfonyl]-ethyl}-phenyl)-imidazolidine-2,4-dione]
21% | CN(CCO)S(=O)(=O)c1ccc(/C=C/S(=O)(=O)N2CCC3(CC2)N=C(C2CCCCC2)NC3=O)c(C(F)(F)F)c1 [Compound 495, 4-[(E)-2-(2-cyclohexyl-4-oxo-1,3,8-triaza-spiro[4.5]dec-1-ene-8-sulfonyl)-vinyl]-N-(2-hydroxy-ethyl)-N-methyl-3-trifluoromethyl-benzenesulfonamide]
66% | CCCCC#CCCCC1=NC2(CCN(S(=O)(=O)/C=C/c3c(C)cc(N(C)C(N)=O)cc3C)CC2)C(=O)N1 [Compound 1024, 1-{3,5-dimethyl-4-[(E)-2-(2-non-4-ynyl-4-oxo-1,3,8-triaza-spiro[4.5]dec-1-ene-8-sulfonyl)-vinyl]-phenyl}-1-methyl-urea]
8.2% | COc1cccc(OC)c1C1=NC2(CCN(S(=O)(=O)CCc3ccc(C(=O)N(C)C)cc3C)CC2)C(=O)N1 [Compound 79, 4-{2-[2-(2,6-dimethoxy-phenyl)-4-oxo-1,3,8-triaza-spiro[4.5]dec-1-ene-8-sulfonyl]-ethyl}-3,N,N-trimethyl-benzamide]
97% | Cc1cc(C(=O)N2C[C@@H](O)[C@H](N(C)C)C2)cc(C)c1/C=C/S(=O)(=O)N1CCC2(CC1)N=C(c1cccc(C(F)(F)F)c1)NC2=O [Compound 387, 8-{(E)-2-[4-((3R,4R)-3-dimethylamino-4-hydroxy-pyrrolidine-1-carbonyl)-2,6-dimethyl-phenyl]-ethenesulfonyl}-2-(3-trifluoromethyl-phenyl)-1,3,8-triaza-spiro[4.5]dec-1-en-4-one]
82% | Cc1cc(C(=O)N2CCC(CO)CC2)cc(C)c1CCS(=O)(=O)N1CCC2(CC1)N=C(c1cccc(OC(F)(F)F)c1)NC2=O [Compound 966, 8-{2-[4-(4-hydroxymethyl-piperidine-1-carbonyl)-2,6-dimethyl-phenyl]-ethanesulfonyl}-2-(3-trifluoromethoxy-phenyl)-1,3,8-triaza-spiro[4.5]dec-1-en-4-one]
83% | Cc1cc(C(=O)N2CCC(O)CC2)cc(C)c1/C=C/S(=O)(=O)N1CCC2(CC1)N=C(c1ccc(F)c(C(F)(F)F)c1)NC2=O [Compound 535, 2-(4-fluoro-3-trifluoromethyl-phenyl)-8-{(E)-2-[4-(4-hydroxy-piperidine-1-carbonyl)-2,6-dimethyl-phenyl]-ethenesulfonyl}-1,3,8-triaza-spiro[4.5]dec-1-en-4-one]
73% | COc1ccc(C2=NC3(CCN(S(=O)(=O)/C=C/c4c(C)cc(C(=O)N5CCC(C)(O)CC5)cc4C)CC3)C(=O)N2)cc1C [Compound 1238, 8-{(E)-2-[4-(4-hydroxy-4-methyl-piperidine-1-carbonyl)-2,6-dimethyl-phenyl]-ethenesulfonyl}-2-(4-methoxy-3-methyl-phenyl)-1,3,8-triaza-spiro[4.5]dec-1-en-4-one]
61% | Cc1cc(C(=O)N2CCC(C)(O)CC2)cc(C)c1/C=C/S(=O)(=O)N1CCC2(CC1)N=C(C1CCC(C)CC1)NC2=O (stereo not drawn) [Compound 999, 8-{(E)-2-[4-(4-hydroxy-4-methyl-piperidine-1-carbonyl)-2,6-dimethyl-phenyl]-ethenesulfonyl}-2-(4-methyl-cyclohexyl)-1,3,8-triaza-spiro[4.5]dec-1-en-4-one]
84% | Cc1cc(C(=O)N2CC[C@@H](O)C2)ccc1CCS(=O)(=O)N1CCC2(CC1)N=C(c1cccc(C(F)(F)F)c1)NC2=O [Compound 355, 8-{2-[4-((R)-3-hydroxy-pyrrolidine-1-carbonyl)-2-methyl-phenyl]-ethanesulfonyl}-2-(3-trifluoromethyl-phenyl)-1,3,8-triaza-spiro[4.5]dec-1-en-4-one]
72% | Cc1cc(N(C)C(=O)C(F)(F)F)cc(C)c1CCS(=O)(=O)N1CCC2(CC1)N=C([C@H]1CC[C@H](C)CC1)NC2=O [Compound 931, N-(3,5-Dimethyl-4-{2-[2-(4-methyl-cyclohexyl)-4-oxo-1,3,8-triaza-spiro[4.5]dec-1-ene-8-sulfonyl]-ethyl}-phenyl)-2,2,2-trifluoro-N-methyl-acetamide]
85% | Cc1cc(C(=O)N2CCN(C(N)=O)CC2)cc(C)c1/C=C/S(=O)(=O)N1CCC2(CC1)N=C(c1cccc(OC(F)(F)F)c1)NC2=O [Compound 396, 4-(3,5-dimethyl-4-{(E)-2-[4-oxo-2-(3-trifluoromethoxy-phenyl)-1,3,8-triaza-spiro[4.5]dec-1-ene-8-sulfonyl]-vinyl}-benzoyl)-piperazine-1-carboxylic acid amide]
